Data taken from paper PMC3089953 (Bioorganic & medicinal chemistry letters, 2009).
Entries after “also recorded” stand apart in the source; their conditions may differ. Each block holds one compound with its values, some of them ahead of it.

Legend:
PBM, CEM, and Vero cells = test: Cytotoxicity in PBM, CEM and Vero cells; type: cell-based
[1] = Cytotoxicity in Vero cells; type: cell-based, African green monkey; conditions: African green monkey, Vero cells (kidney epithelial cells)
in vitro = type: cell-based; conditions: human, CEM cells (T-cell-derived cell line)
adenosine deaminase = test: Conversion by purified adenosine deaminase; conditions: pH 7.4, 25 °C; for Conversion to AZG by adenosine deaminase: 0.2 units per mL enzyme, 120 min, 50 μM nucleoside
PBM cells [2] = test: Intracellular metabolism in PBM cells; type: in vitro ADME, human; conditions: 50 μM for 4 h at 37 °C, LC/MS/MS
Vero cells = test: Cytotoxicity in Vero cells; type: cell-based, African green monkey; conditions: Vero cells
CEM cells = test: in vitro; type: cell-based; conditions: CEM cells
[3] = cited from earlier work
PBM cells [4] = test: Cytotoxicity in PBM cells; type: cell-based; conditions: human
HIV-1LAI = test: Anti-HIV activity against HIV-1LAI in human PBM cells; type: cell-based

SMILES: [N-]=[N+]=N[C@H]1C[C@H](n2cnc3c(N)nc(F)nc32)O[C@@H]1CO [Compound 35]
Cytotoxicity (PBM, CEM, and Vero cells): increase in cytotoxicity

SMILES: COc1nc(F)nc2c1ncn2[C@H]1C[C@H](N=[N+]=[N-])[C@@H](CO)O1 [Compound 36]
IC50 [1]: > 100 µM
IC50 (in vitro): > 100 µM

SMILES: COc1nc(Cl)nc2c1ncn2[C@H]1C[C@H](N=[N+]=[N-])[C@@H](CO)O1 [Compound 30]
IC50 [1]: > 100 µM
IC50 (in vitro): > 100 µM

SMILES: COc1nc(OC)c2ncn([C@H]3C[C@H](N=[N+]=[N-])[C@@H](CO)O3)c2n1 [Compound 39]
IC50 [1]: > 100 µM
No cytotoxicity up to (PBM, CEM, and Vero cells): > 100 µM
IC50 (in vitro): > 100 µM

SMILES: Nc1ncnc2c1ncn2[C@H]1C[C@H](O)[C@@H](CO)O1 [2′-Deoxyadenosine, reference compound]
Deaminated to 2′-deoxyinosine (adenosine deaminase; 7 min with 0.002 units of enzyme, 50 μM, positive control): 59%

SMILES: [N-]=[N+]=N[C@H]1C[C@H](n2cnc3c(NC4CC4)nc(N)nc32)O[C@@H]1CO [Compound 19]
Conversion to AZG-TP in PBM cells (PBM cells [2]): converted to AZG-TP
Detection of the nucleoside analog in the triphosphate (TP) form (PBM cells [2]): unable to detect
IC50 [1]: > 100 µM
Conversion to AZG by adenosine deaminase (adenosine deaminase): substantially or completely converted to AZG
IC50 (in vitro): > 100 µM

SMILES: C=CCN(C)c1nc(N)nc2c1ncn2[C@H]1C[C@H](N=[N+]=[N-])[C@@H](CO)O1 [Compound 21]
Toxicity in Vero cells (Vero cells): increased toxicity
Toxicity in CEM cells (CEM cells): increased toxicity

SMILES: [N-]=[N+]=N[C@H]1C[C@H](n2cnc3c(Cl)nc(F)nc32)O[C@@H]1CO [Compound 37]
Cytotoxicity (PBM, CEM, and Vero cells): increase in cytotoxicity

SMILES: C=CCNc1nc(N)nc2c1ncn2[C@H]1C[C@H](N=[N+]=[N-])[C@@H](CO)O1 [Compound 20]
Conversion to AZG-TP in PBM cells (PBM cells [2]): converted to AZG-TP
Detection of the nucleoside analog in the triphosphate (TP) form (PBM cells [2]): unable to detect
Conversion to AZG by adenosine deaminase (adenosine deaminase): substantially or completely converted to AZG

SMILES: Cc1cn([C@H]2C[C@H](N=[N+]=[N-])[C@@H](CO)O2)c(=O)[nH]c1=O [AZT, 3′-Azido-3′-deoxythymidine]
Bone marrow toxicity, share of the patients [3]: about 5%
IC50 (PBM cells [4]): > 100 µM

SMILES: [N-]=[N+]=N[C@H]1C[C@H](n2cnc3c(NC4CC4)nc(Cl)nc32)O[C@@H]1CO [Compound 33]
IC50 [1]: > 100 µM
IC50 (in vitro): > 100 µM

SMILES: C#CCNc1nc(N)nc2c1ncn2[C@H]1C[C@H](N=[N+]=[N-])[C@@H](CO)O1 [Compound 22]
Anti-HIV activity (HIV-1LAI): significantly less active
Cytotoxicity (PBM, CEM, and Vero cells): no toxicity

SMILES: COc1nc(NC2CC2)c2ncn([C@H]3C[C@H](N=[N+]=[N-])[C@@H](CO)O3)c2n1 [Compound 40]
IC50 [1]: > 100 µM
IC50 (in vitro): > 100 µM

Now from value to compound, other results behind:

IC50 (in vitro): > 100 µM
SMILES: COc1nc(N)c2ncn([C@H]3C[C@H](N=[N+]=[N-])[C@@H](CO)O3)c2n1 [Compound 38]
IC50 [1]: > 100 µM

Conversion to AZG-TP in PBM cells (PBM cells [2]): converted to AZG-TP
SMILES: [N-]=[N+]=N[C@H]1C[C@H](n2cnc3c(N)nc(N)nc32)O[C@@H]1CO [Compound 12]
Conversion to AZG by adenosine deaminase (adenosine deaminase): substantially or completely converted to AZG; also recorded: substantially converted to AZG

IC50 (in vitro): > 100 µM
SMILES: [N-]=[N+]=N[C@H]1C[C@H](n2cnc3c(N)nc(Cl)nc32)O[C@@H]1CO [Compound 31]
IC50 [1]: > 100 µM

IC50 (in vitro): > 100 µM
SMILES: CN(C)c1nc(Cl)nc2c1ncn2[C@H]1C[C@H](N=[N+]=[N-])[C@@H](CO)O1 [Compound 34]
IC50 [1]: > 100 µM

Conversion to AZG-TP in PBM cells (PBM cells [2]): converted to AZG-TP
Detection of the nucleoside analog in the triphosphate (TP) form (PBM cells [2]): unable to detect
SMILES: COc1nc(N)nc2c1ncn2[C@H]1C[C@H](N=[N+]=[N-])[C@@H](CO)O1 [Compound 17]
Conversion to AZG by adenosine deaminase (adenosine deaminase): substantially or completely converted to AZG

IC50 (in vitro): > 100 µM
SMILES: CC(C)(CO)Nc1nc(N)nc2c1ncn2[C@H]1C[C@H](N=[N+]=[N-])[C@@H](CO)O1 [Compound 24]
IC50 [1]: > 100 µM

IC50 (in vitro): > 100 µM
SMILES: [N-]=[N+]=N[C@H]1C[C@H](n2cnc3c(NCCO)nc(N)nc32)O[C@@H]1CO [Compound 26]
IC50 [1]: > 100 µM

Conversion to AZG-TP in PBM cells (PBM cells [2]): converted to AZG-TP
Detection of the nucleoside analog in the triphosphate (TP) form (PBM cells [2]): unable to detect
SMILES: [N-]=[N+]=N[C@H]1C[C@H](n2cnc3c(Cl)nc(N)nc32)O[C@@H]1CO [Compound 10]
Conversion to AZG by adenosine deaminase (adenosine deaminase): substantially or completely converted to AZG

Conversion to AZG-TP in PBM cells (PBM cells [2]): converted to AZG-TP
Detection of the nucleoside analog in the triphosphate (TP) form (PBM cells [2]): unable to detect
Conversion to AZG by adenosine deaminase (adenosine deaminase): resistant to adenosine deaminase
IC50 (in vitro): > 100 µM
SMILES: CN(C)c1nc(N)nc2c1ncn2[C@H]1C[C@H](N=[N+]=[N-])[C@@H](CO)O1 [Compound 18]
IC50 [1]: > 100 µM
